# According to patent EP4596570A1, “SRC INHIBITORS AND USES THEREOF” (Universitat de Barcelona, priority 2024, dated 2025):
# “Also recorded” adds a separate entry of the source.
# Key:
# Assay type in all cases: cell-based, human
# [1] = tested on: SW620-src colorectal cancer cells; test: Soft agar colony formation assay; conditions: Src transformed SW620 colorectal cancer cells, 5 µM of Drugs, 3 weeks, colonies with >50 cells counted; Fig. 11
# Description: (§1) SW620-src colorectal cancer cells were a kind gift of Dr. Serge Roche group. These cells have been stably transfected with human Src as described in Aponte, E., et al. (2021). "Regulation of Src tumor activity by its N-terminal intrinsically disordered region." Oncogene, 41: 960-970.. SW620-src colorectal cancer cells were grown in DMEM supplemented with 10% FBS (Gibco 10500-064), 1% GlutaMAX (Gibco 35050038) 1% P/S (Corning 30-002-CI). Cell lines were grown at 37°C with an atmosphere of 95% air, 5% CO2. All the reagents used during cell culture procedures were heated to 37°C in a water bath before its use. Before each assay, the absence of mycoplasma was tested according to a previously described protocol (Molla Kazemiha, V., et al. (2009). "PCR-based detection and eradication of mycoplasmal infections from various mammalian cell lines: a local experience." Cytotechnology 61(3): 117-124).
# Cells were plated at density of 10,000 per well in 24-well plates in 0.3% soft agar on top of a base layer of 0.7% agar. The cells were treated with 5 µM of Drugs, and the plates were incubated for 3 weeks, replacing the media every week. […] These experiments were repeated twice with 4 replicates per group, and only colonies with >50 cells were counted.
# [2] = tested on: SW620-src colorectal cancer cells; test: Wound healing assay (scratch, cell migration); conditions: Src transformed SW620 cells, 24h after scratch; Fig. 12
# Description: as §1, with “Before each assay, the absence of mycoplasma was tested according to a previously described protocol (Molla Kazemiha, V., et al. (2009). "PCR-based detection and eradication of mycoplasmal infections from various mammalian cell lines: a local experience." Cytotechnology 61(3): 117-124).” left out
# Cells were plated into 24-well plate at density of 500,000 cells/well and were cultured until they reach a 100% confluence. […] Each well was photographed in the same site to quantify cell migration after 24 hours. […] The obtained images were analyzed by Imaged software (Schindelin, J., et al. (2012). "Fiji: an open-source platform for biological-image analysis." Nature Methods 9(7): 676-682) using the MRI wound healing tool plugin (Suarez-Arnedo, A., et al. (2020). "An image J plugin for the high throughput image analysis of in vitro scratch wound healing assays." PLOS ONE 15(7): e0232565) . […]
# [3] = tested on: SW620-src colorectal cancer cells; test: Cell viability assay (MTT); conditions: 72h, varying concentrations, much higher than those used in biological activity assays, Fig. 13
# Description: as §1
# Cell viability was measured by MTT assay as described before (Kamiloglu, S., et al. (2020). "Guidelines for cell viability assays." Food Frontiers 1(3): 332-349).. […]
# SW620-src cells were seeded into 96-well plates containing 100 µL of the growth medium at a density of 10000 cells/well for and cultured for one day. […] Afterwards, the plates were read under 570/690 nm wavelengths by plate reader (Synergy HTX, Biotek).
Compound,colony formation [1],migration of cancer cells (scratch wound healing) [2],cell viability [3]
"COC(=O)NC(C(=O)N1CCC[C@H]1c1cn(-c2ccc(-c3ccc(-n4cc([C@@H]5CCCN5C(=O)C(NC(=O)OC)C(C)C)nn4)cc3)cc2)nn1)C(C)C (stereo partly drawn) [V-Me, Moc-Val-1-Val-Moc]",significantly reduced; also recorded: significantly decrease,significantly reduced; also recorded: significantly impair,do not significantly affect cell viability
"COC(=O)N[C@@H](CO)C(=O)N[C@@H](CC(C)C)C(=O)N[C@@H](CCC(=O)O)C(=O)N1CCC[C@H]1c1cn(-c2ccc(-c3ccc(-n4cc([C@@H]5CCCN5C(=O)[C@H](CCC(=O)O)NC(=O)[C@H](CC(C)C)NC(=O)[C@H](CO)NC(=O)OC)nn4)cc3)cc2)nn1 [SLE-Me, Moc-Ser-Leu-Glu-1-Glu-Leu-Ser-Moc]",,,do not significantly affect cell viability
Moc-Leu-Lys-1-Lys-Leu-Moc [LK-Me],does not show significant biological activity; also recorded: no effect,does not show significant biological activity; also recorded: no effect,
